≈ marks a conversion by molar mass, not a printed value.
Key:
[1] = test system: Pseudomonas aeruginosa; assay: Antimicrobial activity against Pseudomonas aeruginosa isolate 615R obtained from cystic fibrosis patient by disk diffusion method; assay type: functional
[2] = test system: Pseudomonas aeruginosa; assay: Antimicrobial activity against ampicillin- and ticarcillin-resistant Pseudomonas aeruginosa FE60 mutant transformed with pAGH97 carrying mexXY operon by twofold macrodilution method; assay type: functional
[3] = test system: Pseudomonas aeruginosa; assay: Antimicrobial activity against Pseudomonas aeruginosa isolate 3066 obtained from cystic fibrosis patient by disk diffusion method; assay type: functional
[4] = test system: Pseudomonas aeruginosa; assay: Antimicrobial activity against Pseudomonas aeruginosa isolate 2715 obtained from cystic fibrosis patient by agar dilution method
[5] = test system: Pseudomonas aeruginosa; assay: Antimicrobial activity against Pseudomonas aeruginosa isolate 2858 obtained from cystic fibrosis patient by disk diffusion method; assay type: functional
[6] = test system: Pseudomonas aeruginosa; assay: Antimicrobial activity against Pseudomonas aeruginosa isolate 2721 obtained from cystic fibrosis patient by agar dilution method
[7] = test system: Pseudomonas aeruginosa; assay: Antimicrobial activity against Pseudomonas aeruginosa isolate 2716 obtained from cystic fibrosis patient by agar dilution method
[8] = test system: Pseudomonas aeruginosa; assay: Antimicrobial activity against Pseudomonas aeruginosa isolate 2933 obtained from cystic fibrosis patient by disk diffusion method; assay type: functional
[9] = test system: Pseudomonas aeruginosa; assay: Antimicrobial activity against Pseudomonas aeruginosa mutGR1 overexpressing mexXY mutant by twofold macrodilution method; assay type: functional
[10] = test system: Pseudomonas aeruginosa; assay: Antimicrobial activity against Pseudomonas aeruginosa isolate 3020R obtained from cystic fibrosis patient by agar dilution method
[11] = test system: Pseudomonas aeruginosa; assay: Antimicrobial activity against ampicillin- and ticarcillin-resistant Pseudomonas aeruginosa FE60 mutant transformed with pAGH97 carrying mexXY F29S mutant by twofold macrodilution method; assay type: functional
[12] = test system: Pseudomonas aeruginosa; assay: Antimicrobial activity against Pseudomonas aeruginosa isolate 2804 obtained from cystic fibrosis patient by disk diffusion method; assay type: functional
[13] = test system: Pseudomonas aeruginosa; assay: Antimicrobial activity against ampicillin- and ticarcillin-resistant Pseudomonas aeruginosa FE60 mutant transformed with pAGH97 carrying mexXY F1018L mutant by twofold macrodilution method; assay type: functional
[14] = test system: Pseudomonas aeruginosa; assay: Antimicrobial activity against Pseudomonas aeruginosa isolate 2998 obtained from cystic fibrosis patient by agar dilution method
[15] = test system: Pseudomonas aeruginosa; assay: Antimicrobial activity against Pseudomonas aeruginosa isolate 2729 obtained from cystic fibrosis patient by disk diffusion method; assay type: functional
[16] = test system: Pseudomonas aeruginosa; assay: Antimicrobial activity against Pseudomonas aeruginosa isolate 615S obtained from cystic fibrosis patient by disk diffusion method; assay type: functional
[17] = test system: Pseudomonas aeruginosa; assay: Antimicrobial activity against mexXY deficient ampicillin- and ticarcillin-resistant Pseudomonas aeruginosa FE60 mutant by twofold macrodilution method; assay type: functional
[18] = test system: Pseudomonas aeruginosa; assay: Antimicrobial activity against Pseudomonas aeruginosa PAO1 by twofold macrodilution method; assay type: functional
[19] = test system: Pseudomonas aeruginosa; assay: Antimicrobial activity against Pseudomonas aeruginosa isolate 3020S obtained from cystic fibrosis patient by disk diffusion method; assay type: functional
[20] = test system: Pseudomonas aeruginosa; assay: microbe, parasite or virus in culture; conditions: isolate 2729
Description: Antimicrobial activity against Pseudomonas aeruginosa isolate 2729 expressing inactivated mexB gene by disk diffusion method

[21] = test system: Pseudomonas aeruginosa; assay: microbe, parasite or virus in culture; conditions: isolate 2715
Description: Antimicrobial activity against Pseudomonas aeruginosa isolate 2715 expressing inactivated mexB gene by disk diffusion method

[22] = test system: Pseudomonas aeruginosa; assay: Antimicrobial activity against Pseudomonas aeruginosa isolate 2998 expressing inactivated mexB gene by disk diffusion method; assay type: functional
[23] = test system: Pseudomonas aeruginosa; assay: microbe, parasite or virus in culture; conditions: isolate 615R
Description: Antimicrobial activity against Pseudomonas aeruginosa isolate 615R expressing inactivated mexB gene by disk diffusion method

[24] = test system: Pseudomonas aeruginosa; assay: microbe, parasite or virus in culture; conditions: isolate 3066
Description: Antimicrobial activity against Pseudomonas aeruginosa isolate 3066 expressing inactivated mexB gene by disk diffusion method

[25] = test system: Pseudomonas aeruginosa; assay: Antimicrobial activity against Pseudomonas aeruginosa isolate 2933 expressing inactivated mexB gene by disk diffusion method; assay type: functional
[26] = test system: Pseudomonas aeruginosa; assay: microbe, parasite or virus in culture; conditions: isolate 2716
Description: Antimicrobial activity against Pseudomonas aeruginosa isolate 2716 expressing inactivated mexB gene by disk diffusion method

[27] = test system: Pseudomonas aeruginosa; assay: microbe, parasite or virus in culture; conditions: isolate 3020S
Description: Antimicrobial activity against Pseudomonas aeruginosa isolate 3020S expressing inactivated mexB gene by disk diffusion method

[28] = test system: Pseudomonas aeruginosa; assay: microbe, parasite or virus in culture; conditions: isolate 3020R
Description: Antimicrobial activity against Pseudomonas aeruginosa isolate 3020R expressing inactivated mexB gene by disk diffusion method

[29] = test system: Pseudomonas aeruginosa; assay: Antimicrobial activity against Pseudomonas aeruginosa isolate 2721 expressing inactivated mexB gene by disk diffusion method; assay type: functional
[30] = test system: Pseudomonas aeruginosa; assay: Antimicrobial activity against mexXY operon inactivated Pseudomonas aeruginosa PAO1 by twofold macrodilution method; assay type: functional

Compound	MIC [1] [µg/mL]	MIC [2] [µg/mL]	MIC [3] [µg/mL]	MIC [4] [µg/mL]	MIC [5] [µg/mL]	MIC [6] [µg/mL]	MIC [7] [µg/mL]	MIC [8] [µg/mL]	MIC [9] [µg/mL]	MIC [10] [µg/mL]	MIC [11] [µg/mL]	MIC [12] [µg/mL]	MIC [13] [µg/mL]	MIC [14] [µg/mL]	MIC [15] [µg/mL]	MIC [16] [µg/mL]	other results
CO/N=C(\C(=O)N[C@@H]1C(=O)N2C(C(=O)[O-])=C(C[N+]3(C)CCCC3)CS[C@H]12)c1csc(N)n1	4 (≈ 8.32 µM)	8 (≈ 16.6 µM)	32 (≈ 66.6 µM)	16 (≈ 33.3 µM)	4 (≈ 8.32 µM)	8 (≈ 16.6 µM)	8 (≈ 16.6 µM)	16 (≈ 33.3 µM)	8 (≈ 16.6 µM)	4 (≈ 8.32 µM)	8 (≈ 16.6 µM)	32 (≈ 66.6 µM)	16 (≈ 33.3 µM)	8 (≈ 16.6 µM)	8 (≈ 16.6 µM)	–	–
NCC[C@H](O)C(=O)N[C@@H]1C[C@H](N)[C@@H](O[C@H]2O[C@H](CN)[C@@H](O)[C@H](O)[C@H]2O)[C@H](O)[C@H]1O[C@H]1O[C@H](CO)[C@@H](O)[C@H](N)[C@H]1O [AMIKACIN]	16 (≈ 27.3 µM)	4 (≈ 6.83 µM)	128 (≈ 219 µM)	8 (≈ 13.7 µM)	8 (≈ 13.7 µM)	32 (≈ 54.6 µM)	8 (≈ 13.7 µM)	32 (≈ 54.6 µM)	8 (≈ 13.7 µM)	32 (≈ 54.6 µM)	4 (≈ 6.83 µM)	128 (≈ 219 µM)	8 (≈ 13.7 µM)	16 (≈ 27.3 µM)	16 (≈ 27.3 µM)	2 (≈ 3.42 µM)	MIC [17]: 0.5 µg/mL (≈ 0.854 µM); MIC [18]: 2 µg/mL (≈ 3.42 µM); MIC [19]: 2 µg/mL (≈ 3.42 µM)
C[C@H]1[C@H](NC(=O)/C(=N\OC(C)(C)C(=O)O)c2csc(N)n2)C(=O)N1S(=O)(=O)O [AZTREONAM]	0.25 (≈ 0.574 µM)	–	0.25 (≈ 0.574 µM)	0.5 (≈ 1.15 µM)	0.25 (≈ 0.574 µM)	0.25 (≈ 0.574 µM)	0.25 (≈ 0.574 µM)	0.25 (≈ 0.574 µM)	–	0.25 (≈ 0.574 µM)	–	0.25 (≈ 0.574 µM)	–	0.12 (≈ 0.276 µM)	0.25 (≈ 0.574 µM)	0.12 (≈ 0.276 µM)	MIC [20]: 0.25 µg/mL (≈ 0.574 µM); MIC [21]: 0.25 µg/mL (≈ 0.574 µM); MIC [22]: 0.12 µg/mL (≈ 0.276 µM); MIC [23]: 0.25 µg/mL (≈ 0.574 µM); MIC [24]: 0.25 µg/mL (≈ 0.574 µM); MIC [25]: 0.12 µg/mL (≈ 0.276 µM); MIC [26]: 0.25 µg/mL (≈ 0.574 µM); MIC [27]: 0.25 µg/mL (≈ 0.574 µM); MIC [28]: 0.25 µg/mL (≈ 0.574 µM); MIC [29]: 0.12 µg/mL (≈ 0.276 µM); MIC [30]: 0.12 µg/mL (≈ 0.276 µM)
CC(C)(O/N=C(\C(=O)N[C@@H]1C(=O)N2C(C(=O)[O-])=C(C[n+]3ccccc3)CS[C@H]12)c1csc(N)n1)C(=O)O [CEFTAZIDIME]	–	–	> 8	–	4 (≈ 7.32 µM)	0.5 (≈ 0.915 µM)	–	0.5 (≈ 0.915 µM)	–	–	–	2 (≈ 3.66 µM)	–	0.5 (≈ 0.915 µM)	–	–	–

Reference: ChEMBL document CHEMBL1649198, “Efflux unbalance in Pseudomonas aeruginosa isolates from cystic fibrosis patients” (2009)
